Test results taken from ChEMBL document CHEMBL4842385, “Indirubin Derivatives as Dual Inhibitors Targeting Cyclin-Dependent Kinase and Histone Deacetylase for Treating Cancer” (J Med Chem, 2021).
Calls of active or inactive are those of the source. The rule behind the calls is not given here.

Columns and labels:
[1] = molecular target: T1, Protein deacetylase HDAC6 (Homo sapiens) (UniProt Q9UBN7); assay: Inhibition of HDAC6 in human A549 cells assessed as increase in alpha tubulin acetylation measured after 48 hrs by Western blot analysis; format: cell-based; conditions: dose 1-10 µM
T1 sequence (whole entry): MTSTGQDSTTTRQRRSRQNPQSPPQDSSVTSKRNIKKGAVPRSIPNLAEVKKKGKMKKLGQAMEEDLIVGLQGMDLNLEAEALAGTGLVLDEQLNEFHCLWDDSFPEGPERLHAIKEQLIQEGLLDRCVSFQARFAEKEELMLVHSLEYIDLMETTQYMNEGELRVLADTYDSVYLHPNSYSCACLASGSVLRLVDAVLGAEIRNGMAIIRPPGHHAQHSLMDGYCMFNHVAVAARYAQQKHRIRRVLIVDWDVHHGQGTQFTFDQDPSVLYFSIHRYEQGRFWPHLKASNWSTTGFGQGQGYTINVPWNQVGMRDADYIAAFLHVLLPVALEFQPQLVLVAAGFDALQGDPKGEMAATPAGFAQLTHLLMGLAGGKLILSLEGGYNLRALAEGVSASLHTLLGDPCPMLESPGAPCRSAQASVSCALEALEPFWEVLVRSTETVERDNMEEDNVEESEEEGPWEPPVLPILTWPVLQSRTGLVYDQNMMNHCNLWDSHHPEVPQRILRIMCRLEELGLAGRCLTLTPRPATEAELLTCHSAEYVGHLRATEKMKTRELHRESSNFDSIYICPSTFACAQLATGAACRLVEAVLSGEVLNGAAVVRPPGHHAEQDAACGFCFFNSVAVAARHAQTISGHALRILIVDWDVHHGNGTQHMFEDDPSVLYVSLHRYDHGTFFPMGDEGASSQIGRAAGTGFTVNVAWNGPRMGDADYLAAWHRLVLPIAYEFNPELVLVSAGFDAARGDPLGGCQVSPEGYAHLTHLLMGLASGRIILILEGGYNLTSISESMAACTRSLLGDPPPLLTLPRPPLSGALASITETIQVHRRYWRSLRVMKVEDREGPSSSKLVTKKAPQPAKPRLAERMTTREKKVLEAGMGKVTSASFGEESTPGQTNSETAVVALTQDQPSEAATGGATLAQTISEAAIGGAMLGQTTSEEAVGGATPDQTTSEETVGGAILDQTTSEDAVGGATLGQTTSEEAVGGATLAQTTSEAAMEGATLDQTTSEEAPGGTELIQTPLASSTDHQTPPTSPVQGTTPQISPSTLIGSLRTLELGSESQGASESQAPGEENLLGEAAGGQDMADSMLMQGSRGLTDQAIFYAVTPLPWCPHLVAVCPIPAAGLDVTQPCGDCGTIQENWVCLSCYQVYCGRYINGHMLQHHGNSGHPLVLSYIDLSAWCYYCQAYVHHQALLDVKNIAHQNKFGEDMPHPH

[2] = tested on: MCF7; assay: Antiproliferative activity against human MCF7 cells assessed as cell growth inhibition measured after 48 hrs by CCK8 assay; format: functional, cell-based; conditions: MCF7, 48 h
[3] = tested on: A549; assay: Potency index, ratio of SAHA IC50 to test compound IC50 for antiproliferative activity against human A549 cells assessed as cell growth inhibition measured after 48 hrs by CCK8 assay; format: functional
[4] = molecular target: Protein deacetylase HDAC6 (Mus musculus) (UniProt Q9Z2V5); assay: In vivo inhibition of HDAC6 in BALB/c nude mouse xenografted with human A549 cells assessed as increase in alpha tubulin acetylation at 25 to 50 mg/kg, iv administered for 21 consecutive days by immunohistochemical analysis; format: functional, organism-based; conditions: dose 25-50 mg/kg, time 21.0 day
Protein deacetylase HDAC6 (Mus musculus), sequence (Q9Z2V5 whole entry): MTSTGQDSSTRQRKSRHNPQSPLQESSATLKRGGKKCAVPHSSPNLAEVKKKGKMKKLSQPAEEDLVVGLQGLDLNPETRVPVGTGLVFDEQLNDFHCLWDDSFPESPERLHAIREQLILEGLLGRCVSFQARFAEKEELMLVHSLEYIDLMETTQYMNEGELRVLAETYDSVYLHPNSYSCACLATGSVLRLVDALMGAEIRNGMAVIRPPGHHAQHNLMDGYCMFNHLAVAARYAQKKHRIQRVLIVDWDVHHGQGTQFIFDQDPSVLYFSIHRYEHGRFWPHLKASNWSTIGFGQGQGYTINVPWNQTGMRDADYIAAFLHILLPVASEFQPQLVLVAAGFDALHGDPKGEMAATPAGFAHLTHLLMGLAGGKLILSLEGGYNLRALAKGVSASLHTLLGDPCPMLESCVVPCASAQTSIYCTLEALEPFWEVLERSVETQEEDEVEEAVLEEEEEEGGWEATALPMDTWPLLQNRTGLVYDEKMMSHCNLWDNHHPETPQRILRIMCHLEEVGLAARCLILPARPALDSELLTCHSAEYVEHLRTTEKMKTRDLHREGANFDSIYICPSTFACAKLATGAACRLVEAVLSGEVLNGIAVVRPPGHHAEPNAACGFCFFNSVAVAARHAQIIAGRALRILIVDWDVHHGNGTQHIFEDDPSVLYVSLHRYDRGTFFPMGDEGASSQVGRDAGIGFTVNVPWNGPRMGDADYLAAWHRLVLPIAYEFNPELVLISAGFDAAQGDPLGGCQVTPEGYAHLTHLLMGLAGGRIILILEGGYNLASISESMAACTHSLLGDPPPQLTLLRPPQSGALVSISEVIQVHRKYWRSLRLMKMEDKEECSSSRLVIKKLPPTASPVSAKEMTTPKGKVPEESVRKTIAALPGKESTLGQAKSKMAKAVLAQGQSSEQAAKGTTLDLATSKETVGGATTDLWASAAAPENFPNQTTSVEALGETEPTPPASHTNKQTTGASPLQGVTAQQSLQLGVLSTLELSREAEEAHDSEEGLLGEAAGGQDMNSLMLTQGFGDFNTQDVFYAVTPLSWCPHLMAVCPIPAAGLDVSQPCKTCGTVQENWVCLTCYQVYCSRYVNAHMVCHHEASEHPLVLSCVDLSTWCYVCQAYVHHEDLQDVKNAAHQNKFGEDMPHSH

[5] = molecular target: T2, Cyclin-dependent kinase 2/4/6 (Homo sapiens) (UniProt P11802+P24941+Q00534); assay: Inhibition of CDK2/4/6 in human A549 cells assessed as decrease in Rb phosphorylation measured after 48 hrs by Western blot analysis; format: cell-based; conditions: dose 1-10 µM
[6] = molecular target: T2, Cyclin-dependent kinase 2/4/6 (Homo sapiens); assay: Inhibition of CDK2/4/6 in human A549 cells assessed as decrease in Rb phosphorylation at 10 uM incubated for 24 hrs followed by compound washout by DAPI staining based immunofluorescence assay; format: cell-based
[7] = tested on: A549; assay: Cycle arrest in human A549 cells assessed as increase in cell population at S phase measured after 24 hrs by propidium iodide/RNase staining based flow cytometry; format: functional; conditions: dose 2.5-10 µM
[8] = tested on: A549; assay: Induction of apoptosis in human A549 cells assessed as increase in PARP cleavage measured after 48 hrs by Western blot analysis; format: functional, cell-based; conditions: dose 1-10 µM
[9] = tested on: A549; assay: Antitumor activity against human A549 cells xenografted in BALB/c nude mouse assessed as reduction in tumor size at 25 to 50 mg/kg, iv administered for 21 consecutive days; format: functional, organism-based; conditions: dose 25-50 mg/kg, time 21.0 day
[10] = tested on: A549; assay: Antitumor activity against human A549 cells xenografted in BALB/c nude mouse assessed as reduction in tumor weight at 0.75 to 1.5 mg, IT (intratumoral) administered for 21 consecutive days; format: functional, cell-based; conditions: dose 0.75-1.5 mg, time 21.0 day
[11] = tested on: A549; assay: Induction of apoptosis in human A549 cells assessed as downregulation of Mcl-1 protein measured after 48 hrs by Western blot analysis; format: functional, cell-based; conditions: dose 1-10 µM
[12] = tested on: A549; assay: Antitumor activity against human A549 cells xenografted in BALB/c nude mouse assessed as tumor growth inhibition at 0.75 to 1.5 mg, IT (intratumoral) administered for 21 consecutive days relative to control; format: functional; conditions: dose 0.75-1.5 mg, time 21 day
[13] = tested on: K562; assay: Induction of apoptosis in human K562 cells assessed as increase in sum of early and late apoptotic cells at 2.5 to 10 uM measured after 48 hrs by Annexin-V/FITC-propidium iodide staining based flow cytometry analysis; format: functional, cell-based; conditions: dose 2.5-10 µM
[14] = Toxicity in BALB/c nude mouse xenografted with human A549 cells assessed as body weight loss at 0.75 to 1.5 mg, IT(intratumoral) administered for 21 consecutive days; conditions: in vivo, other, 504 h, dose 0.75-1.5 mg, time 21 day
[15] = molecular target: T1, Protein deacetylase HDAC6 (Homo sapiens); assay: Inhibition of HDAC6 in human K562 cells assessed as increase in alpha tubulin acetylation measured after 48 hrs by Western blot analysis; format: cell-based; conditions: dose 1-10 µM
[16] = molecular target: T1, Protein deacetylase HDAC6 (Homo sapiens); assay: Inhibition of HDAC6 in human A549 cells assessed as accumulation of acetylation of H3 at 1 to 10 uM measured after 48 hrs by Western blot analysis; format: cell-based; conditions: dose 1-10 µM
[17] = tested on: A549; assay: Antitumor activity against human A549 cells xenografted in BALB/c nude mouse assessed as reduction in tumor weight at 25 to 50 mg/kg, iv administered for 21 consecutive days; format: functional, organism-based; conditions: dose 25-50 mg/kg, time 21.0 day

Q: What does the source list for `O=C(CCCO/N=C1/C(=C2/C(=O)Nc3ccccc32)Nc2ccccc21)NO`?
A: inhibition [1]: Dose-Dependent Effect; IC50 [2]: 2900 nM; Ratio IC50 [3]: 3; inhibition [4]: Active; inhibition [5]: Dose-Dependent Effect; inhibition [6]: Active; Activity [7]: Dose-Dependent Effect; Activity [8]: Dose-Dependent Effect; Activity [9]: Active; Activity [10]: Active; Activity [11]: Dose-Dependent Effect; TGI [12]: 67.1%; Activity [13]: Active; Activity [14]: Non-Toxic; inhibition [15]: Dose-Dependent Effect; inhibition [16]: inactive; Activity [17]: Active
